Reference: patent US20260275319A1, “ARCHAEAL PEPTIDE RECOMBINASE – A NOVEL PEPTIDE LIGATING ENZYME” (MAX-PLANCK-GESELLSCHAFT ZUR FÖRDERUNG DER WISSENSCHAFTEN …, priority 2019, published 2026)

Key:
[1] = biological target: M. jannaschii Adriase^S1A; details: MST, 25° C., 10 nM FITC peptide, three independent measurements
Method: MST measurements were performed with a Monolith NT.115 (Nanotemper), using various MST power and laser intensity settings to test the general validity of the obtained data. The final results were obtained in three independent experiments and measured at a temperature of 25° C., using MST power 80% and laser intensity 40%.
In a second set of MST experiments, a more detailed analysis of the binding motif (FIG. 18A-F and table in FIG. 5B) was performed using synthetic peptides (Genscript) based on the M. jannaschii MtrA sequence. […] For the MST measurements, 10 nM of these peptides were mixed with a serial dilution of M. jannaschii Adriase^S1A and the experiment was otherwise performed as described for the M. jannaschii MtrA^Δ194-245-Adriase^S1A and the M. jannaschii MtrA^Δ174-245 Adriase^S1A interactions, above.

[2] = system: M. mazei Adriase; assay: Ligation motif analysis with primary and secondary substrates; assay type: biochemical; details: 25 μM substrates, 400× molar excess over Adriase, 50° C.

Chain of M. jannaschii Adriase^S1A (as listed by the source): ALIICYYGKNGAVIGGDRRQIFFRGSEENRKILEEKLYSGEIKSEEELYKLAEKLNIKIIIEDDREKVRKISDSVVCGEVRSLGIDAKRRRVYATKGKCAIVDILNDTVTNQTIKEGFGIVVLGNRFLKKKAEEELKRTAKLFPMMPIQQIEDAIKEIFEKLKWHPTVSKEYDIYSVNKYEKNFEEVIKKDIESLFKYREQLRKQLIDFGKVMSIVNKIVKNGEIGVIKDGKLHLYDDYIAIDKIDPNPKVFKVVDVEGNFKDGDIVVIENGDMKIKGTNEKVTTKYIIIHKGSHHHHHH

Sequence	KD [1]	Adriase activity with substrate [2]
KECLSKDPGAIDEDPFIIELKFITC [(5)KDPGA(10)]	as tightly as M. jannaschii MtrA^Δ194-245	–
PGAFDADP (Methanosarcina mazei Go1; M. mazei PGA(5); listed as Methanosarcina mazei) [M. mazei MtrA-derived secondary substrate peptide]	–	No Adriase activity
